Measured values published in US9018391B2, “Inhibitors of beta-secretase” (Boehringer Ingelheim International GmbH, priority 2012, dated 2015).

What was measured:
Human Hepatocytes = experiment: In Vitro Hepatocyte Stability Assay (Assay 4); assay type: in vitro ADME; conditions: predicted blood clearance as percent of hepatic blood flow
Description: In Vitro Hepatocyte Stability Assay (Assay 4)
The metabolic degradation of test compounds was assayed in a hepatocyte suspension. Cryopreserved hepatocytes were incubated in an appropriate buffer system (e.g., Dulbecco's modified eagle medium plus 3.5 μg glucagon/500 mL, 2.5 mg insulin/500 mL and 3.75 mg/500 mL hydrocortison) containing 5% species serum. Following a 30 min preincubation in an incubator (37° C., 10% CO2), 5 μl of test compound solution (80 μM; from 2 mM in DMSO stock solution diluted 1:25 with medium) were added into 395 μl hepatocyte suspension (cell density in the range 0.25−5×10^6 cells/mL, typically 1×10^6 cells/mL; final concentration of test compound final DMSO concentration […]).
The cells were incubated for six h (incubator, orbital shaker) and samples (25 μl) were taken at 0, 0.5, 1, 2, 4 and 6 h. Samples were transferred into acetonitrile and pelleted by centrifugation (5 min). The supernatant was transferred to a new 96 DeepWell™ plate, evaporated under nitrogen and resuspended. Decline of compound was analyzed by HPLC-MS/MS. CLint (in vitro hepatic intrinsic clearance) was calculated as follows: CLint=Dose/AUC=(C0/CD)/(AUD+Clast/k)×1000/60
C0: initial concentration in the incubation [μM];
CD: cell density of vital cells [cells/mL];
AUD: area under the data [μM×h];
Clast: concentration of last data point [μM];
k: slope of the regression line for compound decline [h^−1].
The calculated in vitro hepatic intrinsic clearance was scaled up to the intrinsic in vivo hepatic clearance (Clint in vivo) and used to predict hepatic in vivo blood clearance (CL) by the use of a liver model (well-stirred model), as follows: CLint,in vivo[mL/min/kg]=(CLint[μL/min/10^6 cells]×hepatocellularity[10^6 cells/g liver]×liver factor [g/kg body weight])/1000 CL[mL/min/kg]=CLint,to vivo×hepatic blood flow[ml/min/kg]/(CLint,in vivo[ml/min/kg]+hepatic blood flow[mL/min/kg])
The in vivo blood clearance was transformed into percent of the hepatic blood flow (% Qh): % Qh=CL[mL/min/kg]/hepatic blood flow[mL/min/kg])×100
Hepatocellularity, human: 1.2×10^7 cells/g liver;
Liver factor, human: 25.7 g/kg body weight;
Hepatic blood flow, human: 21 mL/(min×kg).

[1] = In Vitro Phospholipidosis Assay (Assay 3), Nile red staining; assay type: cell-based, human; conditions: human, first effect concentration, U937 cells, read-out: Phospholipidosis FEC IC50 μM (assay 3)
Description: In Vitro Phospholipidosis Assay (Assay 3)
The phospholipidogenic potential of test compounds was assayed using the human hematopoetic U937 cell line. The test principle was to analyze the phospholipid content by staining the cells with the fluorescent dye Nile red.
U937 cells were seeded into cell culture plates at 0.5×10^6 cells/mL in RPMI medium containing 10% FBS, 1% DMSO, and 0.005% gentamicin. The cells were cultivated with or without different concentrations of test compound for 48 h under standard culture conditions.
For harvesting, the cells were centrifuged at 130×g for 4 min and washed once with PBS. Then, 2×0.5 mL cell suspensions were prepared for non-fixed cell measurement (0.5 mL for propidium iodide (PI) viability measurement and 0.5 mL for Nile red measurement).
The remaining cells were fixed with 3.7% formaldehyde for 30 min. After a further centrifugation step, cells were resuspended with 1.3 mL Nile red working solution (1 μg/mL) and incubated for 5 min at rt. The cell suspension was washed twice with 3 mL PBS and centrifuged with 130×g for 4 min. The supernatant was discarded and the cells were resuspended with 0.5 mL PBS and kept for flow cytometry measurement.
For Nile red staining of the 0.5 mL non-fixed cell samples, 50 μL of a ready to use Nile red solution (10 μg/mL) were added per sample. Samples were kept on ice for 5 min. Thereafter, they were washed once with 4 mL PBS (4° C., 250×g for 8 min) and finally resuspended in 400 μL PBS and kept for flow cytometry measurement.
For the viability measurement, 12.5 μL of the ready to use PI solution (10 μg/mL) were added to the 0.5 mL non-fixed cell suspension. After 15 min of incubation on ice, the samples were measured by flow cytometry using a Coulter Epics XL/MCL flow cytometer.
The viability of the cells of each sample was determined by flow cytometry measurement of the PI content at channel 2 (568-590 nm). Cut-off gates for the fluorescence-dependent differentiation between live and dead cells were defined based on the analysis of cell culture medium control samples.
Only samples with a cell viability of >=90% relative to control samples were analyzed for phospholipidosis. Each Nile red sample (non-fixed and fixed samples) was measured by flow cytometry at channel 1 (504-541 nm) and channel 4 (660-680 nm).
For each channel, relative Nile red fluorescence intensity of a test sample was calculated compared to control samples and expressed as a percentage of control fluorescence intensity. The assessment of the phospholipidogenic potential and the first effective concentration (FEC) of a test compound was done manually based on the fluorescence intensities at both wavelengths for the fixed cells, as well as for the non-fixed cells.

hERG channel = hERG channel (Homo sapiens (Human), UniProt Q12809); experiment: hERG-Channel Assay (Assay 2), whole-cell patch clamp in HEK293 cells stably transfected with hERG cDNA; assay type: cell-based; conditions: for inhibition at 10 µM: human, HEK293 cells stably transfected with hERG cDNA, pH 7.4, 35° C.
Sequence of hERG channel (Q12809 whole entry): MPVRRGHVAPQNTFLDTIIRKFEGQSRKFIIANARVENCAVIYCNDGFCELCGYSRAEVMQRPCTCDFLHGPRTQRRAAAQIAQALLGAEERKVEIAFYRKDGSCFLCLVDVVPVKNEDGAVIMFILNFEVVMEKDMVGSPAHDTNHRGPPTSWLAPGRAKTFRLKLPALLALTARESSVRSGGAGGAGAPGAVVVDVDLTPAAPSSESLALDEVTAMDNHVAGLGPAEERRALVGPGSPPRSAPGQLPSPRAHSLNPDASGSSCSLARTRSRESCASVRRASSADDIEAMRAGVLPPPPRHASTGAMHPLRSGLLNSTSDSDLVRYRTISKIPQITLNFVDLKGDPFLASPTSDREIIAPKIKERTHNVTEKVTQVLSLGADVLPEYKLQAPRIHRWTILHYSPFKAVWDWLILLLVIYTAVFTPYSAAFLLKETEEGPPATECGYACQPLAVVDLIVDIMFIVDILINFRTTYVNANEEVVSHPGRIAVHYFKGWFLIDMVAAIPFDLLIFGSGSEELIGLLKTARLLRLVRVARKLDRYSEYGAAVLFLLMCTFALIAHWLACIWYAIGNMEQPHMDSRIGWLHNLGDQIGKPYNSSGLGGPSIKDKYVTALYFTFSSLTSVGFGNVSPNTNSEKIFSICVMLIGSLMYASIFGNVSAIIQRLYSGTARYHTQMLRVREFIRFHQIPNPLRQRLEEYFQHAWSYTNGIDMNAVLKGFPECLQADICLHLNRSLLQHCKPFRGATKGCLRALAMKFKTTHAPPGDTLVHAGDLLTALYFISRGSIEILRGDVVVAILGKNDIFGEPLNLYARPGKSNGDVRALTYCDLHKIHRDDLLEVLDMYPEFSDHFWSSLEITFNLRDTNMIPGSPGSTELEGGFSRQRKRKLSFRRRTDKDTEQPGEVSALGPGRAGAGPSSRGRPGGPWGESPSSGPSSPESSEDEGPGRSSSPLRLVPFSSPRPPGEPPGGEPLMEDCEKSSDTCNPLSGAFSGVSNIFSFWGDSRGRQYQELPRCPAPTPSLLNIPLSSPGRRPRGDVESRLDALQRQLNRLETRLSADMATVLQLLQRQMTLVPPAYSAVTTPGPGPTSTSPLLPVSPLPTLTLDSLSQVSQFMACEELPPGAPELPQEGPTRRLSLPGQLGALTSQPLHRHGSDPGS
Source text: hERG-Channel Assay (Assay 2)
Cells: HEK (human embryonic kidney) 293 cells were stably transfected with hERG cDNA.
Cells were superfused with a bath solution containing (mM): NaCl (137), KCl (4.0), MgCl2 (1.0), CaCl2 (1.8), Glucose (10), HEPES (10), pH 7.4 with NaOH. Patch pipettes were made from borosilicate glass tubing using a horizontal puller and filled with pipette solution containing (mM): K-aspartate (130), MgCl2 (5.0), EGTA (5.0), K2ATP (4.0), HEPES (10.0), pH 7.2 with KOH. Resistance of the microelectrodes was in the range between 2 and 5 MΩ.
Stimulation and Recording:
Membrane currents were recorded using an EPC-10 patch clamp amplifier and PatchMaster software. hERG-mediated membrane currents were recorded at 35° C., using the whole-cell configuration of the patch-clamp technique. Transfected HEK293 cells were clamped at a holding potential of −60 mV and hERG-mediated inactivating tail currents were elicited using a pulse pattern with fixed amplitudes (activation/inactivation: 40 mV for 2000 ms; recovery: −120 mV for 2 ms; ramp to 40 mV in 2 ms; inactivating tail current: 40 mV for 50 ms) repeated at 15 s intervals. During each inter-pulse interval, 4 pulses scaled down by a factor of 0.2 were recorded for a P/n leak subtraction procedure. Rs compensation was employed up to a level that safely allowed recording devoid of ringing.
Compound Preparation and Application:
The different concentrations of the test compounds were applied sequentially on each of the different cells investigated. A steady state level of baseline current was measured for at least 6 sweeps prior to the application of the first test compound concentration.
The test compound was dissolved in DMSO to yield a master stock solution which was diluted further in DMSO to stock solutions needed for the lower concentrations. Final dilutions in extracellular buffer were prepared freshly from these stocks by a 1:1000 dilution step each before starting the experiments.
Peak current amplitudes were measured 3 ms after the ramp to +40 mV. For baseline and each concentration, the peak currents of the three last sweeps before application of the next concentration were averaged. Residual currents (I/I0) were calculated for each cell as the fraction of actual average peak current and average baseline peak current.

[2] = target: truncated human beta-secretase, BACE1 (amino acids 1-454) (Homo sapiens (Human), UniProt P56817); experiment: BACE1 Assay (Assay 1), fluorescence quench assay; assay type: biochemical; conditions: pH 4.4
Sequence of truncated human beta-secretase, BACE1 (amino acids 1-454) (P56817 22-454): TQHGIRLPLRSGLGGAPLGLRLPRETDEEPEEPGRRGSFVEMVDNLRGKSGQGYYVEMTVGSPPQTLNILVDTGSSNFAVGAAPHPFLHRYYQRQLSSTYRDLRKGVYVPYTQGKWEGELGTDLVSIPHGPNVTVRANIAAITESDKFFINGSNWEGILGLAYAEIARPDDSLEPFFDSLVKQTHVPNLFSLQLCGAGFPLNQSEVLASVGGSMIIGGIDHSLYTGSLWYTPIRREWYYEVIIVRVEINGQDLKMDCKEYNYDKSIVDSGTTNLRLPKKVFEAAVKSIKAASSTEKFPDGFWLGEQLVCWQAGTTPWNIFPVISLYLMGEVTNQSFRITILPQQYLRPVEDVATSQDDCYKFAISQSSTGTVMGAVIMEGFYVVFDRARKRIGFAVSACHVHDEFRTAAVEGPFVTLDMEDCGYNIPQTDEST
Description: The substrate was dissolved at 1 mg/ml in DMSO.
The assay was performed in the presence of OptiMEM™ (supernatant collected over 24 h and cleared from cellular debris by centrifugation) containing the ectodomain of BACE1, 25 μl water containing the desired 2-fold concentration of test compound and 2% DMSO, 1 μM substrate peptide, 20 mM NaOAc, pH 4.4, and 0.04% Triton-X100 in a total assay volume of 50 μl in a 384 well plate. In general, 25 μl of compound dilution were added to the plate followed by the addition of 10 μl of BACE1 containing OptiMEM™ diluted 1:10 in water with 0.2% Triton X-100. The reaction was started with the addition of 15 μl substrate in NaOAc buffer. The reaction was incubated at rt (dark) in an Envision® multilabel reader (Perkin Elmer) and the cleavage of the substrate was recorded as kinetic for […] at ex: 485 nm, em: 538 nm. Blank wells containing no enzyme were included on each plate.
The intensity of fluorescence was regressed against time in order to derive velocities of reaction in all 384 wells. These velocities were used for calculating percent control using an uninhibited control containing 1% DMSO as 100% and a blank control performed in the absence of enzyme as 0%. IC50 values were calculated by fitting percent control vs. test compound concentration using Assay Explorer®.

In vitro Human Hepatocytes % Qh @ 1 μM (assay 4) (Human Hepatocytes) [% Qh] | IC50 [2] [nM] | SMILES | IC50 at 48 h [1] [µM] | inhibition at 10 µM (hERG channel) [%] | % Inhibition hERG @ 10 μM (assay 2) (hERG channel; 35° C.) [%]
3.1 | 3 | C[C@@H]1C[C@@]2(Cc3ccc(C#N)cc3[C@]23N=C(N)N(CC(C)(C)Cl)C3=O)C[C@H](C)[C@H]1O [Example 3] | 200 | 20 | –
6.1 | 2.6 | C[C@@H]1C[C@@]2(Cc3ccc(-c4cncnc4)cc3[C@]23N=C(N)N(CC(C)(C)F)C3=O)C[C@H](C)[C@H]1O [Example 5] | 400 | 12 | –
11 | 6.3 | C[C@@H]1C[C@@]2(Cc3ccc(NC(=O)C(C)(C)F)cc3[C@]23N=C(N)N(CC(C)(C)F)C3=O)C[C@H](C)[C@H]1O [Example 6] | 400 | 1.8 | –
19.1 | 1.9 | CC[C@@H]1C[C@@]2(Cc3ccc(C#N)cc3[C@]23N=C(N)N(C[C@H]2COCCO2)C3=O)C[C@H](C)[C@H]1O [Example 8] | 800 | 6 | –
0 | 10.6 | C[C@@H]1C[C@@]2(Cc3ccc(C#N)cc3[C@]23N=C(N)N(CC2CC2)C3=O)C[C@H](C)[C@H]1O [Example 10] | > 100 | 33 | –
0 | 14.6 | C[C@@H]1CC2(Cc3ccc(Cl)cc3[C@]23N=C(N)N(Cc2ncccn2)C3=O)C[C@H](C)[C@H]1O (stereo partly drawn) [Example 11] | 200 | 19 | –
0 | 6.8 | C[C@H]1C[C@@]2(CC[C@@H]1O)Cc1ccc(-c3cccnc3)cc1[C@]21N=C(N)N(Cc2ncccn2)C1=O [Example 12] | 100 | 15 | –
4.2 | 8.7 | C[C@H]1C[C@@]2(CC[C@@H]1O)Cc1ccc(C#N)cc1[C@]21N=C(N)N(CC2CC(F)(F)C2)C1=O [Example 13] | 200 | 12 | –
5.2 | 4.5 | C[C@@H]1C[C@@]2(Cc3ccc(C#N)cc3[C@]23N=C(N)N(CC2CC(F)(F)C2)C3=O)C[C@H](C)[C@H]1O.O=C(O)C(F)(F)F [Example 14] | 200 | 27 | –
22.9 | 9.7 | C[C@@H]1C[C@@]2(Cc3ccc(C#N)cc3[C@]23N=C(N)N(CCc2ccncc2)C3=O)C[C@H](C)[C@H]1O.O=C(O)C(F)(F)F [Example 15] | 800 | 15.2 | –
14 | – | COC1CCC2(CC1)Cc1ccc(C#N)cc1[C@]21N=C(N)N(C)C1=O (stereo partly drawn) [drawing 10, reference compound] | 400 | 90 | –
8.5 | 5.1 | COC1CCC2(CC1)Cc1ccc(C#CC3CC3)cc1C21N=C(N)N(Cc2ncco2)C1=O (stereo not drawn) [drawing 13, reference compound] | – | 60 | –
8.5 | 5.1 | COC1CCC2(CC1)Cc1ccc(C#CC3CC3)cc1C21N=C(N)N(Cc2ncco2)C1=O (stereo not drawn) [drawing 17, reference compound] | – | – | 60
– | 8.3 | CO[C@H]1CC[C@]2(CC1)Cc1ccc(OCC3CC3)cc1C21N=C(N)N(CCC(F)(F)F)C1=O (stereo partly drawn) [reference compound] | – | 87 | –
88 | 3.5 | CO[C@H]1CC[C@]2(CC1)Cc1ccc(CCC(C)C)cc1C21N=C(N)N(CC(F)(F)F)C1=O (stereo partly drawn) [reference compound] | – | 89 | –
– | 256 | COCC(C)N1C(=O)C2(N=C1N)c1cc(C#N)ccc1CC21CCC(OC)CC1 (stereo not drawn) [reference compound] | – | – | –
– | – | COC1CCC2(CC1)Cc1ccc(Cl)cc1[C@]21N=C(N)N(C)C1=O (stereo partly drawn) [reference compound] | 100 | 58 | –
